Test system: T. brucei
Assay: growth inhibition of T. brucei parasites, late-stage follow-up, T. brucei MetRS inhibitor project, absorbance, round 1 (AID 743068)
Details: T. brucei Lister 427 bloodstream forms, AlamarBlue fluorescence, 48 h

`CCc1ccc2c(c1)c1nnc(SCC(=O)Nc3ccc4c(c3)OCO4)nc1n2C` was tested. Which IC50 did it give?
Its IC50 is greater than 10 µM.

For `CC(=O)N(CCc1ccccc1)C1CC(=O)N(c2ccc(Br)cc2)C1=O` (stereo not given), which IC50 is on record?
Its IC50 is greater than 10 µM.

Which IC50 does the source give for `O=C(NCc1nc2ccccc2[nH]1)C1=C[C@H](c2ccc3c(c2)OCO3)C[C@H](OCCCCO)O1` here?
The IC50 was greater than 10 µM.

For `COc1ccccc1NC(=O)CSc1nnc2c(n1)[nH]c1ccc(C)cc12`, which IC50 is on record?
The IC50 was greater than 10 µM.

`CCCCn1c(CCNC(=O)c2ccc(F)cc2)nc2ccccc21` was tested. Which IC50 did it give?
Its IC50 is greater than 10 µM.

With `CNC(=S)N(CCc1ccccc1)C1CC(=O)N(c2ccc(Br)cc2)C1=O` (stereo not given) as the compound, how does the IC50 read?
The IC50 was 3.44 µM.

How did the IC50 turn out when `O=C(Cn1cc(C(=O)C(=O)N2CCOCC2)c2ccccc21)NCc1ccccc1` was run?
Its IC50 is greater than 10 µM.

How did the IC50 turn out when `Cc1cccc2[nH]c(CCN(C)C(=O)c3cccc(C4CCNC4)c3)nc12` (stereo not given) was run?
Its IC50 is greater than 10 µM.

How did the IC50 turn out when `COc1ccc(CCN(C(=S)Nc2ccccc2)C2CC(=O)N(c3ccc(Cl)cc3)C2=O)cc1` (stereo not given) was run?
Its IC50 is 2.1 µM.

Which IC50 does the source give for `CCN(CC)C(=O)C(=O)c1cn(CC(=O)Nc2cccc(C(F)(F)F)c2)c2ccccc12` here?
The IC50 was 2.55 µM.

`O=C(C(=O)N1CCOCC1)c1cn(CC(=O)N2CCCc3ccccc32)c2ccccc12` was tested. Which IC50 did it give?
Its IC50 is greater than 10 µM.

Which IC50 does the source give for `CC(=O)N(CCc1ccccc1)C1CC(=O)N(c2ccc(Cl)cc2)C1=O` (stereo not given) here?
Its IC50 is greater than 10 µM.

`O=C(NCc1nc2ccccc2[nH]1)C1=C[C@H](c2ccccc2)C[C@H](OCc2ccc(CO)cc2)O1` was tested. Which IC50 did it give?
Its IC50 is greater than 10 µM.

For `CC1Cc2ccccc2N1C(=O)Cn1cc(C(=O)C(=O)N2CCOCC2)c2ccccc21` (stereo not given), which IC50 is on record?
Its IC50 is greater than 10 µM.

For `Cc1ccc(C(=O)NCCc2nc3ccccc3[nH]2)cc1C`, which IC50 is on record?
The IC50 was greater than 10 µM.

How did the IC50 turn out when `O=C(NCCc1nc2ccccc2[nH]1)c1ccc(Cl)cc1` was run?
Its IC50 is greater than 10 µM.

For `CCN(CC)C(=O)C(=O)c1cn(CC(=O)N2CCCc3ccccc32)c2ccccc12`, which IC50 is on record?
The IC50 was greater than 10 µM.

How did the IC50 turn out when `Cc1ccc2[nH]c3nc(SCC(=O)Nc4ccc(C(F)(F)F)cc4)nnc3c2c1` was run?
Its IC50 is greater than 10 µM.

For `O=C(Cn1cc(C(=O)COc2ccccc2)c2ccccc21)Nc1cccc(C(F)(F)F)c1`, which IC50 is on record?
Its IC50 is greater than 10 µM.

Which IC50 does the source give for `O=C(NCCc1nc2ccccc2[nH]1)c1ccc(Cl)c(Cl)c1` here?
The IC50 was greater than 10 µM.

With `O=C(Cn1cc(C(=O)C(=O)N2CCOCC2)c2ccccc21)NCC1CCCO1` (stereo not given) as the compound, how does the IC50 read?
Its IC50 is greater than 10 µM.

With `O=C(Cn1cc(C(=O)C(=O)N2CCCC2)c2ccccc21)Nc1ccccc1` as the compound, how does the IC50 read?
The IC50 was greater than 10 µM.

Which IC50 does the source give for `O=C(NCc1nc2ccccc2[nH]1)C1=C[C@@H](C2CC2)C[C@@H](OCc2ccc(CO)cc2)O1` here?
Its IC50 is greater than 10 µM.

Which IC50 does the source give for `CCN(C(=O)Cn1cc(C(=O)C(=O)N2CCOCC2)c2ccccc21)c1ccccc1` here?
The IC50 was greater than 10 µM.

How did the IC50 turn out when `CC(=O)c1cn(CC(=O)Nc2cccc(C(F)(F)F)c2)c2ccccc12` was run?
The IC50 was greater than 10 µM.

Which IC50 does the source give for `COc1ccc(NC(=O)C2CC(=O)n3c(nc4ccccc43)N2)cc1` (stereo not given) here?
The IC50 was greater than 10 µM.

Which IC50 does the source give for `O=C1CC(NCCc2ccccc2)C(=O)N1c1ccc(Br)cc1` (stereo not given) here?
The IC50 was greater than 10 µM.

`Cc1cccc(NC(=O)C2CC(=O)n3c(nc4ccccc43)N2)c1` (stereo not given) was tested. Which IC50 did it give?
The IC50 was greater than 10 µM.

`O=C(NCCc1nc2ccccc2[nH]1)c1c(F)cccc1F` was tested. Which IC50 did it give?
Its IC50 is greater than 10 µM.

Which IC50 does the source give for `Cc1cccc2[nH]c(C3CCCN(C(=O)c4cccc5cccnc45)C3)nc12` (stereo not given) here?
The IC50 was greater than 10 µM.

`Cc1cccc(C(=O)NCCc2nc3ccccc3n2CCOc2ccccc2)c1` was tested. Which IC50 did it give?
The IC50 was greater than 10 µM.

For `O=C(Cn1cc(C(=O)C2CC2)c2ccccc21)Nc1cccc(C(F)(F)F)c1`, which IC50 is on record?
Its IC50 is 2.62 µM.

Which IC50 does the source give for `CCN(CC)C(=O)C(=O)c1cn(CC(=O)N(CC)c2ccccc2)c2ccccc12` here?
The IC50 was greater than 10 µM.

`CC(C)(C)[C@H]1C=C(C(=O)NCc2nc3ccccc3[nH]2)O[C@@H](OCc2ccc(CO)cc2)C1` was tested. Which IC50 did it give?
The IC50 was greater than 10 µM.

`COCCc1nc2ccc(C(=O)NCCc3nc4ccc(OC)cc4[nH]3)cc2o1` was tested. Which IC50 did it give?
The IC50 was greater than 10 µM.

Which IC50 does the source give for `COc1ccc(CCN(C(=O)c2cccc(F)c2)C2CC(=O)N(c3ccc(Br)cc3)C2=O)cc1` (stereo not given) here?
Its IC50 is greater than 10 µM.

For `Cc1cc2cc(C(=O)N3CCCC(c4nc5ccccc5[nH]4)C3)ccc2o1` (stereo not given), which IC50 is on record?
The IC50 was greater than 10 µM.

`O=C(NCCc1nc2ccccc2[nH]1)c1ccc(Cl)cc1Cl` was tested. Which IC50 did it give?
Its IC50 is greater than 10 µM.

`Cc1ccc(C(=O)NCCc2nc3ccccc3[nH]2)cc1[N+](=O)[O-]` was tested. Which IC50 did it give?
Its IC50 is greater than 10 µM.

For `COc1ccc(NC(=O)CSc2nnc3c4cc(C)ccc4n(C)c3n2)cc1`, which IC50 is on record?
Its IC50 is greater than 10 µM.

Which IC50 does the source give for `CCN(CC)C(=O)C(=O)c1cn(CC(=O)Nc2ccccc2OC)c2ccccc12` here?
The IC50 was greater than 10 µM.

`O=C(CSc1nnc2c(n1)[nH]c1ccc(Br)cc12)NCc1ccccc1` was tested. Which IC50 did it give?
The IC50 was greater than 10 µM.

`CCc1ccc2[nH]c3nc(SCC(=O)NCc4cccc(OC)c4)nnc3c2c1` was tested. Which IC50 did it give?
The IC50 was greater than 10 µM.

`O=C(Cn1cc(C(=O)c2ccco2)c2ccccc21)Nc1cccc(C(F)(F)F)c1` was tested. Which IC50 did it give?
The IC50 was 8.18 µM.

For `CC(C)c1nc2ccc(C(=O)N(C)CCc3nc4ccc(F)cc4[nH]3)cc2o1`, which IC50 is on record?
Its IC50 is greater than 10 µM.

How did the IC50 turn out when `COc1ccccc1NC(=O)Cn1cc(C(=O)C(=O)N2CCOCC2)c2ccccc21` was run?
Its IC50 is greater than 10 µM.

With `CCO[C@H]1OC(C(=O)NCc2nc3ccccc3[nH]2)=C[C@@H](c2ccc(Br)cc2)[C@@H]1CCCO` as the compound, how does the IC50 read?
Its IC50 is greater than 10 µM.

`CCN(CC)C(=O)C(=O)c1cn(CC(=O)Nc2cccc(OC)c2)c2ccccc12` was tested. Which IC50 did it give?
Its IC50 is greater than 10 µM.

How did the IC50 turn out when `Cn1c(CCNC(=O)c2ccc(Cl)cc2)nc2ccccc21` was run?
The IC50 was greater than 10 µM.

How did the IC50 turn out when `CCN(CCc1nc2ccc(C)cc2[nH]1)C(=O)c1ccc2ncccc2c1` was run?
Its IC50 is greater than 10 µM.

How did the IC50 turn out when `O=C(Cn1cc(C(=O)c2ccccc2)c2ccccc21)Nc1cccc(C(F)(F)F)c1` was run?
The IC50 was 4.2 µM.

`O=C(CSC1CC(=O)N(c2cccc(Cl)c2)C1=O)Nc1ccc(Br)cc1` (stereo not given) was tested. Which IC50 did it give?
Its IC50 is greater than 10 µM.

With `Cc1ccc(CNC(=O)CSc2nnc3c(n2)[nH]c2ccc(C)cc23)cc1` as the compound, how does the IC50 read?
The IC50 was greater than 10 µM.

`CCC(=O)c1cn(CC(=O)Nc2cccc(C(F)(F)F)c2)c2ccccc12` was tested. Which IC50 did it give?
Its IC50 is greater than 10 µM.

Which IC50 does the source give for `COc1cccc(NC(=O)C2CC(=O)n3c(nc4ccccc43)N2)c1` (stereo not given) here?
The IC50 was greater than 10 µM.

Source: PubChem BioAssay AID743068 (The Scripps Research Institute Molecular Screening Center, 2013)
